Test results taken from patent US6624202B2, “Inhibitors of copper-containing amine oxidases” (priority 2000, dated 2003).
Structures can show the parent of a compound that is named as a salt. Where two headings read alike, the source gives them in different places.

Key:
[1] = molecular target: T1, Recombinant human VAP-1 SSAO (Homo sapiens, UniProt Q16853); test: In vitro inhibition of VAP-1 SSAO activity (coupled colourimetric method); type: biochemical; conditions: for IC50: 1 mM benzylamine, 1 h at 37° C.; for Selectivity for VAP-1 SSAO over MAO: ratio of total rat MAO IC50 to human VAP-1 SSAO IC50
T1 sequence (Q16853 1-763): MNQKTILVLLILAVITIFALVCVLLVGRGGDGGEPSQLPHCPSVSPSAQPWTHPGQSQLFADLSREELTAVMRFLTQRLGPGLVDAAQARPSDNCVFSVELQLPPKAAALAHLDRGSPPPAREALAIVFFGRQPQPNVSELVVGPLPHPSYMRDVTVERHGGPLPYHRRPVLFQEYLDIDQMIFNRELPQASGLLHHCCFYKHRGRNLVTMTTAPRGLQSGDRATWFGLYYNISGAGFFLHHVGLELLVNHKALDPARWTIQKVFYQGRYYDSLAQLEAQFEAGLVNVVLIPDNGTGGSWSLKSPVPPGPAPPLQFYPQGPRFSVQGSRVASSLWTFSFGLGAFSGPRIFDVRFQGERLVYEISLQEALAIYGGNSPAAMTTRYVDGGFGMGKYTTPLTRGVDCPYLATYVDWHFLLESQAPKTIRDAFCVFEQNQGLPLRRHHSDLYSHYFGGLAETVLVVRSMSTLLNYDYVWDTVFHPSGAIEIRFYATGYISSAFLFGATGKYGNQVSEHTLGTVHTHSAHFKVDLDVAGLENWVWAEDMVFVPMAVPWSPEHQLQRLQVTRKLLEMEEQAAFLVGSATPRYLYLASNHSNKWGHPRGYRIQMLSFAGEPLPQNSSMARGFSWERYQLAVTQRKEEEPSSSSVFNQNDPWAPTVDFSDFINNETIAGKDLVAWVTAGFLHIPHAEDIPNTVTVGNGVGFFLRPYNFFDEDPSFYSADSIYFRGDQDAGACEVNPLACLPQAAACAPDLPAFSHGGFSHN
Protocol: VAP-1 SSAO activity was measured using the coupled colourimetric method essentially as described for monoamine oxidase and related enzymes (Holt, A., et al., Anal. Biochem. 244:384-392 (1997)). Recombinant human VAP-1 SSAO expressed in Chinese Hamster Ovary (CHO) cells was used as a source of VAP-1 SSAO for activity measurements. […] These cells and their culture have previously been described (Smith, D. J., et al., J. Exp. Med. 188:17-27 (1998)). A cell lysate was prepared by suspending approximately 3.6×10^8 cells in 25 ml lysis buffer (150 mM NaCl, 10 mM Tris-Base pH 7.2, 1.5 mM MgCl2, 1% NP40) and incubating at 4° C. overnight on a rotating table. The lysate was clarified by centrifugation at 18000 g for 5 min at room temperature and the supernatant used directly in the assay. The VAP-1 SSAO assay was performed in 96 well microtitre plates as follows. To each well was added a predetermined amount of inhibitor if required. […] Controls lacked inhibitor. The inhibitor was in a total volume of 20 μl in water. The following reagents were then added. 0.2 M potassium phosphate buffer pH 7.6 to a total reaction volume of 200 μl, 45 μl of freshly made chromogenic solution containing 1 mM 2,4-dichlorophenol, 500 μM 4-aminoantipyrine and 4 U/ml horseradish peroxidase and an amount of CHO cell lysate containing VAP-1 SSAO that caused a change of 0.6 A490 per h. […] The plates were incubated for 30 min at 37° C. and the background absorbance measured at 490 nm using a Wallac Victor II multilabel counter. To initiate the enzyme reaction 20 μl 10 mM benzylamine (final concentration=1 mM) was added and the plate incubated for 1 h at 37° C. The increase in absorbance, reflecting VAP-1 SSAO activity, was measured at 490 nm. Inhibition was presented as percent inhibition compared to control after correcting for background absorbance and IC50 values calculated using GraphPad Prism.

[2] = lysate of CHO cells expressing recombinant human VAP-1 SSAO, read-out: VAP-1 SSAO inhibitory activity IC50

Compound | melting point | IC50 ([1]; VAP-1 SSAO inhibitory activity IC50, lysate of CHO cells expressing recombinant human VAP-1 SSAO) | Selectivity for VAP-1 SSAO over MAO [1] | IC50 [1, 2]
C[C@@H]([C@H](O)c1ccccc1)N(C)N (as salt: maleate) [Compound 1, (1R,2S)-2-(1-Methylhydrazino)-1-phenyl-1-propanol hydrogenmaleate] | 111 to 113 °C | – | – | –
C[C@H](C(O)c1ccccc1)N(C)N (single isomer, unassigned) [Compound 48] | 112 to 114 °C | 280 nM | 110 | –
NNCC(O)c1ccccc1 (single isomer, unassigned) [Compound 49] | 99 to 104 °C | – | 70 | 140 nM
NNCC(O)c1ccccc1 (single isomer, unassigned) [Compound 50] | 98 to 103 °C | – | 283 | 35 nM
